# Several values for one entry are separate records, joined by “and”; a condition that tells them apart may be missing. Equal entries are not always repeated.
# Assays:
# [1] = target: T1, branched-chain transaminase (Escherichia coli, UniProt P0AB80); assay: Substrate specificity of purified branched-chain transaminase for keto acids; type: biochemical, E. coli; conditions: for Concentration of 2-oxobutyrate: purified enzyme (1 U/mL), 20 mM L-homoalanine, 20 mM keto acid, pH 7.0, 37° C., 7 hours
# T1 construct: made in house; host or cells: E. coli BL21(DE3)
# Experimental: Reaction was conducted using the branched-chain transaminase purified in Example 3 and using various L-amino acids and keto acids described in [Table 3] as substrates. After adding 10 μL of the purified enzyme (1 U/mL) to 100 μL of a mixture of 20 mM L-homoalanine, 20 mM keto acid and 50 mM potassium phosphate (pH 7.0), reaction was conducted at 37° C. for 7 hours and the amount of produced 2-oxobutyrate (keto acid of L-homoalanine) was measured. The result is shown in [Table 3].
# When trimethylpyruvate and L-homoalanine were used as substrates, the equilibrium constant of the reaction by the branched-chain transaminase was very low at 0.16.
# [2] = test system: ω-transaminase derived from Paracoccus denitrificans (PdwTA); assay: Substrate specificity of purified ω-transaminase for keto acids in initial stage of reaction, PdwTA; type: biochemical; parameters: unit not given here; conditions: purified enzyme (1 U/mL); 20 mM keto acid, 20 mM (S)-α-methylbenzylamine, pH 7.0, 37° C., 10 minutes
# Experimental: (§1) Reaction was conducted using the ω-transaminase purified in Example 3 and using various keto acids and amine as substrates as described in [Table 7]. After adding 10 μL of the purified enzyme (1 U/mL) to 100 μL of a mixture of 20 mM keto acid, 20 mM (S)-α-methylbenzylamine and 50 mM potassium phosphate (pH 7.0), reaction was conducted at 37° C. for 10 minutes and the amount of produced acetophenone (deaminated ketone of (S)-α-methylbenzylamine) was measured. The result was compared with that of the ω-transaminase derived from Ochrobactrum anthropi. The result is shown in [Table 7].
# [3] = test system: ω-transaminase derived from Ochrobactrum anthropi; assay: Substrate specificity of purified ω-transaminase for keto acids, OawTA; type: biochemical; conditions: 20 mM keto acid, 20 mM (S)-α-methylbenzylamine, pH 7.0, 37° C., 6 hours
# Experimental: as §1, with “6].” for “7].”, “(6” for “(1”, “6 hours” for “10 minutes”
# [4] = test system: ω-transaminase derived from Ochrobactrum anthropi; assay: Substrate specificity of purified ω-transaminase for keto acids in initial stage of reaction, OawTA; type: biochemical; parameters: unit not given here; conditions: 20 mM keto acid, 20 mM (S)-α-methylbenzylamine, pH 7.0, 37° C., 10 minutes
# Experimental: as §1
# [5] = test system: ω-transaminase derived from Paracoccus denitrificans (PdwTA); assay: Substrate specificity of purified ω-transaminase for keto acids, PdwTA; type: biochemical; conditions: purified enzyme (6 U/mL); 20 mM keto acid, 20 mM (S)-α-methylbenzylamine, pH 7.0, 37° C., 6 hours
# Experimental: as §1, with “6].” for “7].”, “(6” for “(1”, “6 hours” for “10 minutes”
# [6] = test system: ω-transaminase derived from Ochrobactrum anthropi; assay: Substrate specificity of purified ω-transaminase for amino acids (glyoxylate acceptor), OawTA; type: biochemical; conditions: 20 mM glyoxylate, 20 mM L-amino acid, pH 7.0, 37° C., 6 hours
# Experimental: (§2) Reaction was conducted using the ω-transaminase purified in Example 3 and using various L-amino acids and […] as substrates as described in [Table 5]. After adding 10 μL of the purified enzyme (5 U/mL) to 100 μL of a mixture of 20 mM glyoxylate, 20 mM L-amino acid and 50 mM potassium phosphate (pH 7.0), reaction was conducted at 37° C. for 6 hours and the amount of produced L-glycine was measured. The reaction was conducted 3 times and the result was compared with that of the ω-transaminase derived from Ochrobactrum anthropi. The result is shown in [Table 5].
# [7] = target: T1, branched-chain transaminase; assay: Substrate specificity of branched-chain transaminase for amino acids with trimethylpyruvate, crude extract; type: biochemical, E. coli; conditions: 20 mM trimethylpyruvate, 20 mM L-amino acid, pH 7.0, 37° C., 2 hours
# Experimental: Reaction was conducted using the crude extract containing the branched-chain transaminase obtained in Example 3 and using various trimethylpyruvate (keto acid of L-tert-leucine) as substrates. After adding 100 μL of the crude extract to 200 μL of a mixture of 20 mM trimethylpyruvate, 20 mM L-amino acid and 50 mM potassium phosphate (pH 7.0), reaction was conducted at 37° C. for 2 hours and the amount of produced L-tert-leucine was measured. The result is shown in [Table 2].
# [8] = target: T1, branched-chain transaminase; assay: Substrate specificity of purified branched-chain transaminase for amino acids with trimethylpyruvate; type: biochemical, E. coli; conditions: purified enzyme (6 U/mL); 20 mM trimethylpyruvate, 20 mM L-amino acid, pH 7.0, 37° C., 6 hours
# Experimental: Reaction was conducted using the branched-chain transaminase purified in Example 3 and using various L-amino acids and trimethylpyruvate as substrates as described in [Table 4]. After adding 10 μL of the purified enzyme (6 U/mL) to 100 μL of a mixture of 20 mM trimethylpyruvate, 20 mM L-amino acid and 50 mM potassium phosphate (pH 7.0), reaction was conducted at 37° C. for 6 hours and the amount of produced L-tert-leucine was measured. The result is shown in [Table 4].
# [9] = test system: ω-transaminase derived from Paracoccus denitrificans (PdwTA); assay: Substrate specificity of purified ω-transaminase for amino acids (glyoxylate acceptor), PdwTA; type: biochemical; conditions: purified enzyme (5 U/mL); 20 mM glyoxylate, 20 mM L-amino acid, pH 7.0, 37° C., 6 hours; reaction conducted 3 times
# Experimental: as §2
# [10] = target: T1, branched-chain transaminase; assay: Substrate specificity of branched-chain transaminase for amino acids, enzyme-containing crude extract; type: biochemical, E. coli; conditions: 20 mM L-amino acid, pH 7.0, 37° C., 30 minutes
# Experimental: Reaction was conducted using the crude extract containing the branched-chain transaminase obtained in Example 3 and using various L-amino acids and keto acids described in [Table 1] as substrates. After adding 20 μL of the crude extract to 200 μL of a mixture of 20 mM L-amino acid, 20 mM keto acid and 50 mM potassium phosphate (pH 7.0), reaction was conducted at 37° C. for 30 minutes and the amount of produced L-amino acid was measured. The result is shown in [Table 1].
# [11] = 20 mM α-ketoglutarate as keto acid
# T1 sequence (P0AB80 whole entry): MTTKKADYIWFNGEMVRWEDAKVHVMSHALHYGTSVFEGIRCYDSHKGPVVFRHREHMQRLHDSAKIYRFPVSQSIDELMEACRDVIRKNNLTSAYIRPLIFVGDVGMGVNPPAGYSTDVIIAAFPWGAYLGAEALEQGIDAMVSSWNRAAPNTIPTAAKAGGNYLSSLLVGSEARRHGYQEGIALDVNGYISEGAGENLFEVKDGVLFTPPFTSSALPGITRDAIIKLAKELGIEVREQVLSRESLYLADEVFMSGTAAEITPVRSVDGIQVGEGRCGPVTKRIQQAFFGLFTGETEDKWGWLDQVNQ
SMILES,"amount of produced acetophenone, PdwTA [2]","amount of produced acetophenone, OawTA [4]","Concentration of L-glycine, OawTA [6] [mM]",Concentration of L-tert-leucine [8],"Concentration of L-glycine, PdwTA [9]",other results
O=C(O)C(=O)C12CC3CC(CC(O)(C3)C1)C2 [2-(3-Hydroxy-1-adamantyl)-2-oxoethanoic acid],–,–,–,–,–,Concentration of 2-oxobutyrate [1]: 5.47 mM
CCC(=O)C(=O)O [2-Oxobutyrate],0.821,0.173,–,–,–,"Concentration of acetophenone, OawTA [3]: 5.05 mM; Concentration of acetophenone, PdwTA [5]: 5.03 mM"
CCCCC(=O)C(=O)O [2-Oxohexanoic acid],0.713,0.006,–,–,–,"Concentration of acetophenone, OawTA [3]: 3.07 mM; Concentration of acetophenone, PdwTA [5]: 5.22 mM"
CCCC(=O)C(=O)O [2-Oxopentanoic acid],1.332,0.378,–,–,–,"Concentration of acetophenone, OawTA [3]: 3.45 mM; Concentration of acetophenone, PdwTA [5]: 5.24 mM"
CC(C)C(=O)C(=O)O [3-Methyl-2-oxobutyrate],–,–,–,–,–,"Concentration of 2-oxobutyrate [1]: 11.93 mM; Concentration of acetophenone, OawTA [3]: 0.00 mM; Concentration of acetophenone, PdwTA [5]: 0.00 mM"
CCC(C)C(=O)C(=O)O (centres unmarked) [3-Methyl-2-oxoxpentanoic acid],–,–,–,–,–,"Concentration of 2-oxobutyrate [1]: 8.49 mM; Concentration of acetophenone, OawTA [3]: 0.00 mM; Concentration of acetophenone, PdwTA [5]: 0.00 mM"
CC(C)CC(=O)C(=O)O [4-Methyl-2-oxopentanoic acid],0.175,0.005,–,–,–,"Concentration of 2-oxobutyrate [1]: 7.27 mM; Concentration of acetophenone, OawTA [3]: 0.03 mM; Concentration of acetophenone, PdwTA [5]: 4.99 mM"
O=C(O)C(=O)CF [Fluoropyruvate],0.339,0.554,–,–,–,–
O=CC(=O)O [Gyloxylate],1.076,1.733,–,–,–,–
C[C@H](N)C(=O)O [L-Alanine],–,–,11.73,2.24 mM and 2.07 mM and 2.23 mM,13.92 mM and 13.31 mM and 11.61 mM,Production amount of L-tert-leucine [7]: 0.8 mM
N[C@@H](CCC(=O)O)C(=O)O [L-Glutamate],–,–,–,–,–,Production amount of L-tert-leucine [7]: 6.4 mM; Production amount of L-amino acid ([10]; 20 mM 2-oxobutyrate as keto acid): 4.2 mM
CC[C@H](N)C(=O)O [L-Homoalanine],–,–,4.97,5.57 mM and 4.43 mM and 5.71 mM,12.56 mM and 13.31 mM and 11.26 mM,"Production amount of L-tert-leucine [7]: 7.2 mM; Production amount of L-amino acid [10, 11]: 0.1 mM"
CC[C@H](C)[C@H](N)C(=O)O [L-Isoleucine],–,–,0.00,7.79 mM and 7.48 mM and 6.51 mM,0.00 mM,"Production amount of L-tert-leucine [7]: 9.2 mM; Production amount of L-amino acid [10, 11]: 2.6 mM"
CC(C)C[C@H](N)C(=O)O [L-Leucine],–,–,0.00,6.71 mM and 6.32 mM and 7.06 mM,7.93 mM and 7.95 mM and 5.71 mM,–
CCCC[C@H](N)C(=O)O [L-Norleucine],–,–,0.28,5.90 mM and 5.48 mM and 5.55 mM,13.41 mM and 12.97 mM and 12.59 mM,–
CCC[C@H](N)C(=O)O [L-Norvaline],–,–,0.36,6.31 mM and 5.34 mM and 6.06 mM,13.43 mM and 14.29 mM and 14.12 mM,–
CC(C)[C@H](N)C(=O)O [L-Valine],–,–,0.00,6.31 mM and 5.04 mM and 6.23 mM,0.18 mM and 0.20 mM and 0.17 mM,"Production amount of L-tert-leucine [7]: 7.8 mM; Production amount of L-amino acid [10, 11]: 1.6 mM"
CC(C)(C)[C@H](N)C(=O)O [L-tert-Leucine],–,–,–,–,–,"Production amount of L-amino acid [10, 11]: 0.06 mM"
O=C(O)C(=O)CS [Mercaptopyruvate],0.008,0.012,–,–,–,–
CC(C)(C)C(=O)C(=O)O [Trimethylpyruvate],–,–,–,–,–,Concentration of 2-oxobutyrate [1]: 5.83 mM; equilibrium constant of the reaction by the branched-chain transaminase ([1]; trimethylpyruvate and L-homoalanine as substrates): 0.16
O=C(O)C(=O)CO [β-Hydroxypyruvate],0.066,0.183,–,–,–,–

# — patent US9376694B2, “Method for preparing optically active amino acid using cosubstrate shuttling of transaminase” (INDUSTRY-ACADEMIC COOPERATION FOUNDATION, YONSEI UNIVERSITY, priority 2012, dated 2016)
